Assay results: PubChem BioAssay AID248 (DTP/NCI, 2004)
Values joined by “and” are separate entries in the source; they are usually repeats but may differ in a detail not shown here. Identical values can stand only once. Toxic doses and inconclusive results are not listed.

Test system: L1210 leukemia ip in BDF1 mice, survival T/C
Test: NCI In Vivo Anticancer Drug Screen. Data for tumor model L1210 Leukemia (intraperitoneal) in B6D2F1 (BDF1) mice
Conditions: endpoint: mean survival time, higher = longer survival
Procedure, shortened: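 Transplanted-tumor mice were given test agent; controls received vehicle only. Survival readings from the two groups were divided (treated over control).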

[1] = dose: 100.0 mg/kg/injection, schedule: Q04DX002 (ip), vehicle: saline with Tween-80
[2] = dose: 25.0 mg/kg/injection, schedule: Q01DX009 (ip), vehicle: saline with Tween-80
[3] = dose: 50.0 mg/kg/injection, schedule: Q01DX009 (ip), vehicle: saline with Tween-80
[4] = dose: 100.0 mg/kg/injection, schedule: Q04DX003 (ip), vehicle: Klucel (hydroxypropylcellulose) (HPC)
[5] = dose: 200.0 mg/kg/injection, schedule: Q04DX003 (ip), vehicle: Klucel (hydroxypropylcellulose) (HPC)
[6] = dose: 400.0 mg/kg/injection, schedule: Q04DX003 (ip), vehicle: Klucel (hydroxypropylcellulose) (HPC)
[7] = dose: 100.0 mg/kg/injection, schedule: Q01DX009 (ip), vehicle: Klucel (hydroxypropylcellulose) (HPC)
[8] = dose: 200.0 mg/kg/injection, schedule: Q01DX009 (ip), vehicle: Klucel (hydroxypropylcellulose) (HPC)
[9] = dose: 400.0 mg/kg/injection, schedule: Q01DX009 (ip), vehicle: Klucel (hydroxypropylcellulose) (HPC)
[10] = dose: 100.0 mg/kg/injection, schedule: Q04DX002 (ip), vehicle: Klucel (hydroxypropylcellulose) (HPC)
[11] = dose: 200.0 mg/kg/injection, schedule: Q04DX002 (ip), vehicle: Klucel (hydroxypropylcellulose) (HPC)
[12] = dose: 400.0 mg/kg/injection, schedule: Q04DX002 (ip), vehicle: Klucel (hydroxypropylcellulose) (HPC)
[13] = dose: 100.0 mg/kg/injection, schedule: Q01DX009 (ip), vehicle: saline
[14] = dose: 200.0 mg/kg/injection, schedule: Q01DX009 (ip), vehicle: saline

In the case of `CCCCCCCCCCC1CCCC1`, the T/C [1] was 94 % of control, the T/C (dose: 200.0 mg/kg/injection, schedule: Q04DX002 (ip), vehicle: saline with Tween-80) was 98 % of control and the T/C (dose: 400.0 mg/kg/injection, schedule: Q04DX002 (ip), vehicle: saline with Tween-80) was 94 % of control.
For `CCS[P+](NC1CCCCC1)(NC1CCCCC1)NC1CCCCC1`, the T/C [2] was 94 % of control, the T/C (dose: 25.0 mg/kg/injection, schedule: Q04DX002 (ip), vehicle: saline with Tween-80) was 103 % of control and the T/C [3] was 100 % of control. The T/C (dose: 50.0 mg/kg/injection, schedule: Q04DX002 (ip), vehicle: saline with Tween-80) was 98 % of control and the T/C [1] was 88 % of control.
With `CCN(CC)CCOc1ccc(/C=C(/C(=O)c2ccccc2)c2ccccc2)cc1` the T/C (dose: 100.0 mg/kg/injection, schedule: Q04DX003 (sc), vehicle: olive oil, sesame oil, peanut oil) was 101 % of control, the T/C (dose: 200.0 mg/kg/injection, schedule: Q04DX003 (sc), vehicle: olive oil, sesame oil, peanut oil) was 101 % of control and the T/C (dose: 400.0 mg/kg/injection, schedule: Q04DX003 (sc), vehicle: olive oil, sesame oil, peanut oil) was 101 % of control.
For `CCCCCCCCCCCCCCCC1=NN(c2ccccc2)C(=O)C1NC(=O)O` (configuration not stated), the T/C [4] was 107 % of control, the T/C [5] was 97 % of control and the T/C [6] was 98 % of control.
With `Nc1ccc(C(=O)Nc2ccc(Nc3ccncc3)cc2)cc1` the T/C [7] was 112 % of control, the T/C [4] was 108 % of control and the T/C [8] was 106 % of control. The T/C [5] was 103 % of control, the T/C [9] was 103 % of control and the T/C [6] was 106 % of control.
For `C=CCCCCCCCCC(=O)N(C)OC`, the T/C [2] was 97 % of control, the T/C [3] was 105 % of control and the T/C (dose: 100.0 mg/kg/injection, schedule: Q01DX009 (ip), vehicle: saline with Tween-80) was 94 % of control and 92 % of control.
With `CCCN(CCC)C(=O)CCC(C)O` (configuration not stated) the T/C (dose: 100.0 mg/kg/injection, schedule: Q01DX001 (ip), vehicle: acetone) was 113 % of control, the T/C (dose: 200.0 mg/kg/injection, schedule: Q01DX001 (ip), vehicle: acetone) was 101 % of control and the T/C (dose: 400.0 mg/kg/injection, schedule: Q01DX001 (ip), vehicle: acetone) was 103 % of control.
For `COc1ccc(NC(=O)Oc2ccc3ccccc3c2)c(OC)c1`, the T/C [10] was 97 % of control, the T/C [11] was 111 % of control and the T/C [12] was 104 % of control.
In the case of `CC(=O)c1cccc(OC(=O)Oc2cccc(C(C)=O)c2)c1`, the T/C (dose: 100.0 mg/kg/injection, schedule: Q01DX001 (ip), vehicle: carboxymethylcellulose (CMC)) was 95 % of control, the T/C (dose: 200.0 mg/kg/injection, schedule: Q01DX001 (ip), vehicle: carboxymethylcellulose (CMC)) was 90 % of control and the T/C (dose: 400.0 mg/kg/injection, schedule: Q01DX001 (ip), vehicle: carboxymethylcellulose (CMC)) was 95 % of control.
For `COc1ccc(-n2c(=O)c(N=Nc3ccccc3C)c(O)n(-c3ccccc3Cl)c2=S)cc1`, the T/C (dose: 100.0 mg/kg/injection, schedule: Q01DX001 (ip), vehicle: Klucel (hydroxypropylcellulose) (HPC)) was 107 % of control, the T/C (dose: 200.0 mg/kg/injection, schedule: Q01DX001 (ip), vehicle: Klucel (hydroxypropylcellulose) (HPC)) was 94 % of control and the T/C (dose: 400.0 mg/kg/injection, schedule: Q01DX001 (ip), vehicle: Klucel (hydroxypropylcellulose) (HPC)) was 102 % of control.
For `CC1(C)COC(Cc2ccccc2)=N1`, the T/C (dose: 25.0 mg/kg/injection, schedule: Q01DX009 (ip), vehicle: saline) was 98 % of control, the T/C (dose: 50.0 mg/kg/injection, schedule: Q01DX009 (ip), vehicle: saline) was 104 % of control and the T/C (dose: 50.0 mg/kg/injection, schedule: Q04DX003 (ip), vehicle: saline) was 96 % of control. For the same compound, the T/C [13] was 102 % of control, the T/C (dose: 100.0 mg/kg/injection, schedule: Q04DX003 (ip), vehicle: saline) was 94 % of control and the T/C [14] was 101 % of control. For the same compound, the T/C (dose: 200.0 mg/kg/injection, schedule: Q04DX003 (ip), vehicle: saline) was 91 % of control.
`Nc1cc(SC(c2ccccc2)c2ccccc2)c(N)c(N)n1` was tested, and the T/C (dose: 75.0 mg/kg/injection, schedule: Q01DX001 (ip), vehicle: DMSO) was 96 % of control and the T/C (dose: 150.0 mg/kg/injection, schedule: Q01DX001 (ip), vehicle: DMSO) was 88 % of control.
With `CCOC(=O)NP(=O)(N1CC1(C)C)N1CC1(C)C` (configuration not stated) the T/C (dose: 62.5 mg/kg/injection, schedule: Q01DX010 (ip), vehicle: saline) was 115 % of control and 120 % of control, the T/C (dose: 125.0 mg/kg/injection, schedule: Q01DX010 (ip), vehicle: saline) was 117 % of control and the T/C (dose: 250.0 mg/kg/injection, schedule: Q01DX010 (ip), vehicle: saline) was 151 % of control and 157 % of control.
For `CC(=O)N1CCc2cc(N)ccc21`, the T/C (dose: 200.0 mg/kg/injection, schedule: Q01DX009 (ip), vehicle: saline with Tween-80) was 103 % of control.
`C/C(Cl)=C/CC1=C(O)c2ccccc2C(=O)C1=O` was tested, and the T/C (dose: 25.0 mg/kg/injection, schedule: Q01DX001 (ip), vehicle: water) was 104 % of control, the T/C (dose: 50.0 mg/kg/injection, schedule: Q01DX001 (ip), vehicle: water) was 101 % of control and the T/C (dose: 75.0 mg/kg/injection, schedule: Q01DX001 (ip), vehicle: water) was 97 % of control.
With `COc1ccc(OC)c(NCCN2C(=O)c3ccccc3C2=O)c1` the T/C [10] was 95 % of control, the T/C [11] was 100 % of control and the T/C [12] was 100 % of control.
For `O=C1CC2(C(=O)O)CC3CC2C(O1)C3I` (configuration not stated), the T/C (dose: 100.0 mg/kg/injection, schedule: Q01DX009 (ip), vehicle: carboxymethylcellulose (CMC)) was 86 % of control, the T/C (dose: 100.0 mg/kg/injection, schedule: Q04DX003 (ip), vehicle: carboxymethylcellulose (CMC)) was 105 % of control and the T/C (dose: 200.0 mg/kg/injection, schedule: Q01DX009 (ip), vehicle: carboxymethylcellulose (CMC)) was 96 % of control. The T/C (dose: 200.0 mg/kg/injection, schedule: Q04DX003 (ip), vehicle: carboxymethylcellulose (CMC)) was 97 % of control, the T/C (dose: 400.0 mg/kg/injection, schedule: Q01DX009 (ip), vehicle: carboxymethylcellulose (CMC)) was 94 % of control and the T/C (dose: 400.0 mg/kg/injection, schedule: Q04DX003 (ip), vehicle: carboxymethylcellulose (CMC)) was 103 % of control.
`Cc1cc(OCC(N)=O)ccc1Cl` was tested, and the T/C [10] was 103 % of control, the T/C [11] was 92 % of control and the T/C [12] was 98 % of control.
For `S=C(Nc1ccccc1)Nc1ccccc1S`, the T/C [7] was 97 % of control, the T/C [4] was 98 % of control and the T/C [8] was 92 % of control. For the same compound, the T/C [5] was 95 % of control, the T/C [9] was 92 % of control and the T/C [6] was 95 % of control.
With `Clc1nc(N2CC2)nc(N2CC2)c1Br` the T/C (dose: 0.2 mg/kg/injection, schedule: Q01DX Z (ip), vehicle: methylcellulose (MC)) was 88 % of control and the T/C (dose: 0.5 mg/kg/injection, schedule: Q01DX Z (ip), vehicle: methylcellulose (MC)) was 104 % of control.
`CCN(CC)CCNC1CCCCC1` was tested, and the T/C (dose: 100.0 mg/kg/injection, schedule: Q04DX003 (ip), vehicle: saline with Tween-80) was 94 % of control.
In the case of `NC1C2C3C=CC(C3)C12` (configuration not stated), the T/C [13] was 107 % of control and the T/C [14] was 100 % of control.
For `CCC(=O)OCC1CCC(COC(=O)CC)CC1` (configuration not stated), the T/C (dose: 222.0 mg/kg/injection, schedule: Q01DX Z (ip), vehicle: methylcellulose (MC)) was 100 % of control, the T/C (dose: 333.0 mg/kg/injection, schedule: Q01DX Z (ip), vehicle: methylcellulose (MC)) was 96 % of control and the T/C (dose: 500.0 mg/kg/injection, schedule: Q01DX Z (ip), vehicle: methylcellulose (MC)) was 97 % of control.
`O=c1[nH]nc(Sc2ccccc2)c(=O)[nH]1` was tested, and the T/C (dose: 100.0 mg/kg/injection, schedule: Q01DX001 (ip), vehicle: saline) was 97 % of control, the T/C (dose: 200.0 mg/kg/injection, schedule: Q01DX001 (ip), vehicle: saline) was 97 % of control and the T/C (dose: 400.0 mg/kg/injection, schedule: Q01DX001 (ip), vehicle: saline) was 97 % of control.
`CCCc1cc(C(C)=O)c[n+](C2OC(COC(C)=O)C(OC(C)=O)C(OC(C)=O)C2OC(C)=O)c1` (configuration not stated) was tested, and the T/C (dose: 50.0 mg/kg/injection, schedule: Q01DX005 (ip), vehicle: water) was 97 % of control and the T/C (dose: 100.0 mg/kg/injection, schedule: Q01DX005 (ip), vehicle: water) was 97 % of control.
